Experimental data: PubChem BioAssay AID449764 (Southern Research Specialized Biocontainment Screening …, 2010)

Test system: Mycobacterium tuberculosis H37Rv growth inhibition, no glycerol
Test: Mycobacterium tuberculosis H37Rv growth inhibition, no glycerol, confirmatory dose response (AID 449764);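 note: growth read after 7 days of incubation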
Settings: for IC90: measured here: IC90 growth inhibition

SMILES | IC50 | IC90
COC(=O)C(C)Oc1cc(C)ccc1COc1ccc(-n2nc(C)n(C(F)F)c2=O)cc1 (centres undefined) | 21.3 µM | 27.5 µM
CC(C)(C)NC(=O)COC(=O)c1cc(Br)ccc1Cl | 24.3 µM | 45.4 µM
CCOC(=O)c1ccc(NC(=O)C(C)Sc2nc(O)c(-c3ccccc3)c(=O)[nH]2)cc1 (centres undefined) | 18.4 µM | 35 µM
Oc1ccccc1N=Cc1ccc[nH]1 | 4.6 µM | 6.04 µM
Cc1ccc(-c2nc3ccsc3c(=O)o2)cc1 | 4.19 µM | > 100 µM
C(=N\Nc1ccc2ccccc2n1)/c1ccc2c(c1)OCCO2 | 5.03 µM | 7.13 µM
N#Cc1nc(-c2ccc(OCc3ccccc3)cc2)oc1NCCCn1ccnc1 | 37.5 µM | 43 µM
CCn1c2ccccc2c2cc(CN3CCN(Cc4cc(OC)ccc4O)CC3)ccc21 | 17.2 µM | 23.4 µM
COc1ccc(/C=N/Nc2cc(N3CCCC3)nc(N3CCCC3)n2)cc1 | 18.6 µM | 24 µM
Cc1cccc(N2CCN(CC(=O)Nc3nccs3)CC2)c1C | 39.3 µM | 69.2 µM
CC(C)(C)CC(C)(C)c1ccc(OCCOCC[N+](C)(C)Cc2ccccc2)cc1 | 42.8 µM | 47.1 µM
Cc1ccc(NC(=O)COC(=O)C(NS(=O)(=O)c2ccc(Cl)cc2)C(C)O)cc1C (centres undefined) | 16.1 µM | 36.2 µM
CC1(C)CC(=O)C2=C(C1)OC(N)=C([N+](=O)[O-])C2c1ccc(C#N)s1 (centres undefined) | 79.7 µM | 97.7 µM
COC(=O)c1ccc(Cn2cc(C(F)(F)F)cc([N+](=O)[O-])c2=O)cc1 | 0.63 µM | > 100 µM
CCOC(=O)c1cc(C)nc(Sc2ccc(C)cc2)c1C#N | 5.32 µM | 7.74 µM
Cn1c(=O)c(C(=O)NNC(=O)c2cccc(Cl)c2)c(O)c2ccccc21 | 2.78 µM | 3.14 µM
CCOC(=O)CNC(=S)n1cnc(N)n1 | 45.8 µM | > 100 µM
CCCNC(=S)Nc1ccc(Nc2ccccc2)cc1 | 25 µM | 44.5 µM
Oc1ccc2ccccc2c1C1Nc2cccc3cccc(c23)N1 | – | > 100 µM
O=C(C[n+]1cc(-c2ccc(Cl)cc2)n2c1CCC2)Nc1nc(-c2ccccc2)cs1 | 23.4 µM | 26.7 µM

SMILES | IC50 | IC90
CCOc1ccc(-c2[nH]ncc2-c2ccc(Cl)cc2)c(O)c1 | 44.8 µM | 72.3 µM
CCn1c(C)nc2cc(C(=O)OC(C(F)(F)C(F)F)C(F)(F)C(F)F)ccc21 | 21.2 µM | 25.8 µM
O=C1CC(/C=C/c2ccc(Cl)cc2)=Nc2ccccc2N1 | 12.2 µM | 14.2 µM
CCOC(=O)C1CCN(CC(O)COc2ccc(C(C)(C)CC)cc2)CC1 (centres undefined) | 23.2 µM | 26.5 µM
Cc1ccc(NC(=O)C2C3/C=C\CCCCC32)cc1C (centres undefined) | 2.97 µM | 4.49 µM
CCc1ccc2c(c1)C1(C(=O)N2)N2CCCC2C(C(=O)c2ccc3ccccc3c2)C12C(=O)Nc1ccccc12 (centres undefined) | 23.9 µM | 36.2 µM
OC(CN1CCCCC1)Cn1c2ccc(Cl)cc2c2cc(Cl)ccc21 (centres undefined) | 11.2 µM | 12.5 µM
Cc1cc(C)c(C)c(N=Nc2nc3ccccc3n2C)c1C | 11.2 µM | 12.6 µM
CCC1CSC(Nc2ccc(C(=O)/C=C/c3cccc(C)c3)cc2)=N1 (centres undefined) | 20.5 µM | 35.9 µM
OCC(O)/C=N/Nc1nc(Nc2ccccc2)nc(Nc2ccccc2)n1 (centres undefined) | 14 µM | 24.1 µM
COc1ccc(CNC(=O)c2c(N)n(CCCN3CCOCC3)c3nc4ccccc4nc23)cc1 | 92.4 µM | > 100 µM
CC(C)(C)c1ccc(C(=O)CSc2n[nH]c(=O)[nH]c2=O)cc1 | 16.4 µM | 28.6 µM
CCOc1ccc(NC(=O)CCc2nnc3ccc(N4CCC(C)CC4)nn23)cc1 | 12.5 µM | 14.7 µM
CN(C)C(=O)c1ccc(NC(=O)COC(=O)c2cc3c(s2)CCCCC3)cc1 | 91.6 µM | > 100 µM
CC1(c2cc([N+](=O)[O-])cc([N+](=O)[O-])c2)CC(C)(C)N(C(=O)c2ccccc2)c2ccccc21 (centres undefined) | 20.8 µM | 28.9 µM
Cc1ccc(C2=NCCn3c2c2ccccc2[n+]3[O-])cc1 | 24.5 µM | 31.7 µM
COc1ccc(C2Oc3ccccc3C3=C2C(c2cccs2)n2ncnc2N3)cc1 (centres undefined) | 78.9 µM | > 100 µM
O=C(CSc1ccccn1)Nc1nonc1[N+](=O)[O-] | 5.73 µM | 6.24 µM
N#Cc1c(-c2ccccc2)c(-c2ccccc2)nn(CC(=O)NNC(=O)Nc2ccc(Cl)c(Cl)c2)c1=O | 47.9 µM | 54.7 µM
O=C(Nc1cccnc1Cl)c1cc(-c2ccco2)on1 | 38.4 µM | > 100 µM

SMILES | IC50 | IC90
O=[N+]([O-])c1cc([N+](=O)[O-])c2c(=Nc3ccccc3)n(-c3ccccc3)n(O)c2c1 | 8.32 µM | 10.3 µM
CCOc1ccc(OCCSc2ccc(S(=O)(=O)N3CCN(C)CC3)cn2)cc1 | 25.5 µM | 28.8 µM
O=C(c1cc(COc2ccc(F)cc2F)on1)N1CCCC(c2ccccc2)C1 (centres undefined) | 53.8 µM | > 100 µM
Cc1cc(C)cc(NC(=O)CCc2ccc(C)o2)c1 | 92.9 µM | > 100 µM
Cc1ccc(C(=O)n2c(N)nc3ccccc32)cc1 | 89.9 µM | > 100 µM
COc1cc(C#Cc2c(-c3cncn3C)n(C)c3ccc(-c4cnc(N5CCOCC5)nc4)cc23)cc(OC)c1 | 49.5 µM | 55 µM
COc1ccc(NC(=O)CN(C)CC(=O)Nc2sc3c(c2C(N)=O)CCC3)cc1 | 82.4 µM | > 100 µM
CCOC(=O)CNC(=O)c1sc2ncnc(N3CCc4ccccc4C3)c2c1C | 79.1 µM | 97.7 µM
C/C(=N\NC(=O)c1cc2ccccc2cc1O)c1ccc(C)o1 | 10.5 µM | 18.7 µM
C#CCOCCOCCOCCNc1nc(N2CCN(C(=O)CCCCCCCCCCNC(=O)[C@H](CCCCN)n3cc(CCCC(=O)O)nn3)CC2)nc(N2CCN(C(=O)CCCCCCCCCCNC(=O)[C@H](CCCN=C(N)N)n3cc(C[C@@H](C)CC)nn3)CC2)n1 | 6.73 µM | 9.93 µM
CCN(C[C@H]1N[C@@](Cc2ccccc2)(C(=O)OC)[C@H]2C(=O)N(Cc3ccccc3)C(=O)[C@@H]12)C(=O)Nc1ccc(C(F)(F)F)cc1 | 8.06 µM | 9.81 µM
CCc1c(C2(O)CCCCC2)[nH]c2ccc(C(F)(F)F)cc12 | 40.2 µM | > 50 µM
c1ccc(C2[C@H]3CN(CC4CCCCC4)[C@H](c4ccccc4)C34CC2(c2cccnc2)C4)cc1 (some centres undefined) | 34.2 µM | 45.1 µM
CC(C)(C)C(=O)NC(=S)NNC(=O)c1sc2ccccc2c1Cl | 43.9 µM | > 100 µM
COc1ccc(Nc2nc(N)c([N+](=O)[O-])c(NC3CCCCC3)n2)cc1 | 18.3 µM | 26.3 µM
CO[C@@H]1[C@@H](OC(N)=O)[C@@H](O)C(Oc2ccc3c(O)c(NC(=O)c4ccc(O)c(CC=C(C)C)c4)c(=O)oc3c2C)OC1(C)C (some centres undefined) | 9.33 µM | 14.5 µM
CCC1=C(OC(=O)N(CC)CC)N2C(=O)OC(=NCCc3c[nH]c4ccccc34)[C@]2(Cc2ccccc2)[C@H]2C1=CC[C@H]1C(=O)NC(=O)[C@H]12 | 30.6 µM | 45.7 µM
CCCc1cc(NC(=O)CCl)n(-c2ccccc2)n1 | 2.93 µM | 3.32 µM
O=C(c1ccccc1)c1ccc(OCCOCCN2CCN(Cc3ccccc3)CC2)cc1 | 24 µM | 27.5 µM
O=C(Oc1ccc2ccccc2c1)c1cncc(Br)c1 | 55.3 µM | > 100 µM
